Source: patent publication US20100048641A1, “Use of Adenosine A1 and/or Dual A1/2ab Agonists for Production of Medicaments for Treating Diseases” (BAYER HEALTHCARE AG LAW AND PATENTS,PATENTS AND LICENSING, priority 2006, published 2010)
pEC50: −log10 of the molar value. Where a name gives a salt, the structure may show the parent alone.

What was measured:
adenosine A2a receptor = biological target: T1, adenosine A2a receptor (Homo sapiens, UniProt P29274); assay: Indirect determination of adenosine agonism by gene expression (luciferase, cAMP-dependent promoter), A2a cells; type: cell-based; settings: CHO cells stably transfected with A2a receptor cDNA; 50% of maximum stimulation of luciferase
T1 construct: expressed in transfected cells; host or cells: CHO (Chinese Hamster Ovary) cells, stably transfected
Description: (§1) Indirect Determination of the Adenosine Agonism by Way of Gene Expression
(§2) Cells of the CHO (Chinese Hamster Ovary) permanent cell line are transfected stably with the cDNA for the adenosine receptor subtypes A1, A2a and A2b. The adenosine A1 receptors are coupled to the adenylate cyclase by way of Gi proteins, while the adenosine A2a and A2b receptors are coupled by way of Gs proteins. In correspondence with this, the formation of cAMP in the cell is inhibited or stimulated, respectively. After that, expression of the luciferase is modulated by way of a cAMP-dependent promoter. The luciferase test is optimized, with the aim of high sensitivity and reproducibility, low variance and good suitability for implementation on a robot system, by varying several test parameters, such as cell density, duration of the growth phase and the test incubation, forskolin concentration and medium composition. The following test protocol is used for pharmacologically characterizing cells and for the robot-assisted substance screening:
(§3) The stock cultures are grown, at 37° C. and under 5% CO2, in DMEM/F12 medium containing 10% FCS (foetal calf serum) and in each case split 1:10 after 2-3 days. The test cultures are seeded in 384-well plates with 2000 cells per well and grown at 37° C. for approx. 48 hours. The medium is then replaced with a physiological sodium chloride solution (130 mM sodium chloride, 5 mM potassium chloride, 2 mM calcium chloride, 20 mM HEPES, 1 mM magnesium chloride hexahydrate, 5 mM sodium bicarbonate, pH 7.4). The substances to be tested, which are dissolved in DMSO, are pipetted into the test cultures (maximum final concentration of DMSO in the test mixture: 0.5%) in a dilution series of from 1.1×10^−11M to 3×10^−6M (final concentration). 10 minutes later, forskolin is added to the A1 cells and all the cultures are subsequently incubated at 37° C. for four hours. After that, 35 μl of a solution which is composed of 50% lysis reagent (30 mM disodium hydrogenphosphate, 10% glycerol, 3% TritonX100, 25 mM TrisHCl, 2 mM dithiotreitol (DTT), pH 7.8) and 50% luciferase substrate solution (2.5 mM ATP, 0.5 mM luciferin, 0.1 mM coenzyme A, 10 mM tricine, 1.35 mM magnesium sulfate, 15 mM DTT, pH 7.8) are added to the test cultures, which are shaken for approx. 1 minute and the luciferase activity is measured using a camera system. The EC50 values are determined, i.e., the concentrations at which 50% of the luciferase answer is inhibited in the case of the A1 cell, and, respectively, 50% of the maximum stimulation with the corresponding substance is achieved in the case of the A2b and A2a cells. […] Pharmacol., 357 (1998), 1-9).
(§4) Table 1 below lists the EC50 values of representative working examples of compounds of the formula (IA) for the receptor stimulation on adenosine A1, A2a and A2b receptor subtypes: […]

adenosine A1 receptor = biological target: T2, adenosine A1 receptor (Homo sapiens, UniProt P30542); assay: Indirect determination of adenosine agonism by gene expression (luciferase, cAMP-dependent promoter), A1 cells; type: cell-based; settings: CHO cells stably transfected with A1 receptor cDNA; 1 μM forskolin; concentration at which 50% of the luciferase answer is inhibited
T2 construct: expressed in transfected cells; host or cells: CHO (Chinese Hamster Ovary) cells, stably transfected
T2 sequence (P30542 1-326): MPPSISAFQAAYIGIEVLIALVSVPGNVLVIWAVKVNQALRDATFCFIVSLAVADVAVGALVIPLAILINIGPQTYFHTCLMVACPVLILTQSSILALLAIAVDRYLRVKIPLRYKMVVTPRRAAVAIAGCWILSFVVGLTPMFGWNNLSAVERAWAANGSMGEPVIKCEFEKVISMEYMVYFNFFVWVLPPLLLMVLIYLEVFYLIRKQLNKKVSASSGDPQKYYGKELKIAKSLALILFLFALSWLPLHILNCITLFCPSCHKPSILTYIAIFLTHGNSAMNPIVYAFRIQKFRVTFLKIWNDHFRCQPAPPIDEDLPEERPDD
Description: as §1, §2, §3, §4

adenosine A2b receptor = biological target: T3, adenosine A2b receptor (Homo sapiens, UniProt P29275); assay: Indirect determination of adenosine agonism by gene expression (luciferase, cAMP-dependent promoter), A2b cells; type: cell-based; settings: CHO cells stably transfected with A2b receptor cDNA; 50% of maximum stimulation of luciferase
T3 construct: expressed in transfected cells; host or cells: CHO (Chinese Hamster Ovary) cells, stably transfected
T3 sequence (P29275 1-332): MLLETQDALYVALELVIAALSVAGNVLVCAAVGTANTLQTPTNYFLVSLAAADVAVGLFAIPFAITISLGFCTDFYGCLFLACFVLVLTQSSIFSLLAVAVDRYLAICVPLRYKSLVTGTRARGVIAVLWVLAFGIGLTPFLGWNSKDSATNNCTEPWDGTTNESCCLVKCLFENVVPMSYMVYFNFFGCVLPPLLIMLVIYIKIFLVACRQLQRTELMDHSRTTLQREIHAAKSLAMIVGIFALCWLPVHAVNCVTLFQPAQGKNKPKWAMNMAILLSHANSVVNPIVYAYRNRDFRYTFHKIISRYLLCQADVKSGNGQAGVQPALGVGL
Description: as §1, §2, §3, §4

T1 sequence (P29274 whole entry): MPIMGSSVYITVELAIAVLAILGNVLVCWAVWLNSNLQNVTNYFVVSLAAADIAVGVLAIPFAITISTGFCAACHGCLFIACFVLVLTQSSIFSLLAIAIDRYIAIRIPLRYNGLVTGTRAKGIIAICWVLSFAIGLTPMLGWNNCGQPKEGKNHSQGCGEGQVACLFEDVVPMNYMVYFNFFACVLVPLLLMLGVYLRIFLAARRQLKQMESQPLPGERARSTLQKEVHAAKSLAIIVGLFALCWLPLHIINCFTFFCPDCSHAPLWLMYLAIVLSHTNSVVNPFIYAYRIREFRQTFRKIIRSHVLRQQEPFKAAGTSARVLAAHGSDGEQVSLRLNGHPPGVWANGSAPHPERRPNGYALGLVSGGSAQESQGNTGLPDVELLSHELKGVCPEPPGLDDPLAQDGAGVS

Row | pEC50 (adenosine A2a receptor) | EC50 (adenosine A1 receptor) | pEC50 (adenosine A2b receptor) | melting point | SMILES
1 | < 5.52 | 2.3 nM | 7.55 |  | N#Cc1c(N)nc(SCc2csc(Nc3ccc(F)cc3)n2)c(C#N)c1-c1ccc(OCCN)cc1 [Example 70, 2-Amino-4-[4-(2-aminoethoxy)phenyl]-6-[({2-[(4-fluorophenyl)amino]-1,3-thiazol-4-yl}methyl)-thio]pyridine-3,5-dicarbonitrile hydrochloride]
2 | 6.52 | 1 nM | 9.00 |  | N#Cc1c(N)nc(SCc2csc(Nc3ccc(F)cc3)n2)c(C#N)c1-c1ccc(OCCO)cc1 [Example 8, 2-Amino-6-[({2-[(4-fluorophenyl)amino]-1,3-thiazol-4-yl}methyl)thio]-4-[4-(2-hydroxyethoxy)-phenyl]pyridine-3,5-dicarbonitrile]
3 | < 5.52 | 23 nM | 7.13 |  | COCCOc1ccc(-c2c(C#N)c(N)nc(SCc3csc(Nc4ccc(C)cc4)n3)c2C#N)cc1 [Example 26]
4 | 6.63 | 0.2 nM | 10.00 |  | N#Cc1c(N)nc(SCc2csc(Nc3ccc(C(=O)O)cc3)n2)c(C#N)c1-c1ccc(OCCO)cc1 [Example 13, 4-({4-[({6-Amino-3,5-dicyano-4-[4-(2-hydroxyethoxy)phenyl]pyridin-2-yl}thio)methyl]-1,3-thiazol-2-yl}amino)benzoic acid]
5 | 6.99 | 0.7 nM | 9.30 |  | N#Cc1ccc(Nc2nc(CSc3nc(N)c(C#N)c(-c4ccc(OCCO)cc4)c3C#N)cs2)cc1 [Example 21]

Further lines, the compound ahead of its results:

Row | SMILES | pEC50 (adenosine A2a receptor) | EC50 (adenosine A1 receptor) | pEC50 (adenosine A2b receptor) | melting point
6 | N#Cc1c(N)nc(SCc2csc(Nc3ccc(F)c(Cl)c3)n2)c(C#N)c1-c1ccc(OC[C@@H](O)CO)cc1 [Example 48] | 6.85 | 0.4 nM | 10.00 | 
7 | N#Cc1c(N)nc(SCc2csc(Nc3cccc(Cl)c3)n2)c(C#N)c1-c1ccc(OCC(O)CO)cc1 (stereo not shown) [Example 1, 2-Amino-6-[({2-[(3-chlorophenyl)amino]-1,3-thiazol-4-yl}methyl)thio]-4-[4-(2,3-dihydroxypropoxy)phenyl]pyridine-3,5-dicarbonitrile] |  |  |  | 192 to 194 °C
8 | COc1cc(Nc2nc(CSc3nc(N)c(C#N)c(-c4ccc(OC[C@@H](O)CO)cc4)c3C#N)cs2)ccc1F [Example 39] | 5.92 | 0.3 nM | 8.85 | 
9 | N#Cc1c(N)nc(SCc2csc(Nc3cccc(F)c3)n2)c(C#N)c1-c1ccc(OC[C@@H](O)CO)cc1 [Example 44] | 6.85 | 0.6 nM | 9.52 | 
10 | N#Cc1c(N)nc(SCc2csc(Nc3cccc(Cl)c3)n2)c(C#N)c1-c1ccc(OC[C@@H](O)CO)cc1 [Example 35] | 6.85 | 0.4 nM | 9.52 | 
11 | N#Cc1c(N)nc(SCc2csc(Nc3ccc(F)cc3F)n2)c(C#N)c1-c1ccc(OCCO)cc1 [Example 10, 2-Amino-6-[({2-[(2,4-difluorophenyl)amino]-1,3-thiazol-4-yl}methyl)thio]-4-[4-(2-hydroxyethoxy)phenyl]pyridine-3,5-dicarbonitrile] | < 6.70 | 2 nM | 9.00 | 
12 | Cc1cccc(Nc2nc(CSc3nc(N)c(C#N)c(-c4ccc(OCC(O)CO)cc4)c3C#N)cs2)c1 (stereo not shown) [Example 2] | 6.13 | 9.9 nM | 8.21 | 
